Publication PMC11413854, “Reversible Control of Native GluN2B-Containing NMDA Receptors with Visible Light” (ACS Chemical Neuroscience, 2024)
Where “and” joins values, the source holds several entries; their conditions need not be identical. Identical values can stand only once. Like-named read-outs stand apart in the source and are kept apart here.

Target: T1, GluN1/GluN2B NMDA receptors (UniProt P35439+Q01097)
T1 construct: expressed in transfected cells; host or cells: Xenopus laevis oocytes (nuclear cDNA injection)
Experiment: TEVC electrophysiology on Xenopus oocytes expressing wt GluN1/GluN2B NMDARs
Type: cell-based, rat GluN1, mouse GluN2B
Settings: for inhibition of GluN1/GluN2B wt: 1 µM trans-OptoNAM-3 (dark); for IC50: 100 µM glutamate + glycine, Xenopus oocytes; for remaining activity at 1 µM: [OptoNAM-3] 1 µM; for remaining activity at 3 µM: [OptoNAM-3] 3 µM; for remaining activity at 5 µM: [OptoNAM-3] 5 µM; for remaining activity at 0.025 µM: [OptoNAM-3] 0.025 µM; for remaining activity at 0.05 µM: [OptoNAM-3] 0.05 µM; for remaining activity at 0.22 µM: [OptoNAM-3] 0.22 µM; for remaining activity at 30 µM: [OptoNAM-3] 30 µM; for Relative current for theoretical DRC 9% trans: theoretical for 350 nm PSS
From the text: The activity of OptoNAM-3 was functionally monitored by electrophysiology on Xenopus oocytes (see Methods). To assess the light-dependent effect, we tested the activities of the dark PSS (mostly trans) and the UV PSS (mostly cis, see above) separately. For each concentration, we prepared a solution divided into two samples: one in which the compound was kept in the dark for the duration of the experiment (dark PSS state); and the other that was preilluminated with either 350 or 365 nm light (350 or 365 nm PSS) and then kept away from the light for the duration of the experiment in order to avoid photoisomerization of the compounds by ambient light (see Methods). […] We generated dose–response curves of OptoNAM-3 dark and UV PSS on wild-type (wt) GluN1/GluN2B NMDA receptors (Figure 3A) in the presence of saturating concentrations of agonists (100 μM glutamate and glycine).
We used cDNA coding for rat GluN1–1a (named GluN1 herein) (GenBank: U08261.1), rat GluN2A (GenBank: D13211.1), mouse GluN2B (GenBank: D10651.2), rat GluA1 flop (GenBank: M36418.2), and rat Myc-GluA2(Q)-flip (GenBank: AF164344.1) cloned into pcDNA3-based expression plasmids. GluK2 (GenBank: Z11548.1) corresponds to the fully RNA-edited version.[80] The GluN2B-ΔNTD construct is from ref[45] and GluN2B–N615K is from ref[81]. Single mutants GluN2B-Q110G and GluN1-L135H were from ref[19]. The GluA2 cDNA contains a Myc tag ([…]) fused between the signal peptide and the N-terminus sequences, and the GluA2 subunit is […] for its Q/R/N site (GluA2(Q)) to allow permeation of homomeric GluA2 receptors.[2] cDNAs coding for rat GluN2C (GenBank: M91563.1) and GluN2D subunits (GenBank: L31611.1) were in prK5 plasmids.
Oocytes from Xenopus laevis were used for heterologous expression of recombinant NMDA receptors studied using a two-electrode voltage clamp (TEVC). Female Xenopus laevis were housed and ovary bags harvested according to the European Union guidelines (husbandry authorizations #C75–05–31 and #D75–05–31; project authorizations #05137.02; and Apafis #28867–2020121814485893). Fragments of ovary bags were also purchased from the “Centre de Ressources Biologiques Xenopes” (now TEFOR, Paris Saclay, France) and from the European Xenopus Resource Center (EXRC, Portsmouth, UK). Xenopus laevis oocytes were harvested and prepared as previously described in ref[82].
Expression of recombinant NMDA receptors was obtained by oocyte nuclear coinjection of 37 nL of a mixture of cDNAs (at 30 ng/μL) coding for GluN1–1a and various GluN2 subunits (ratio 1:1). The protocol in ref[43] was followed for the expression of GluN1/GluN2A/GluN2B triheteromers. The oocytes were transferred in 96-well plates filled with Barth solution (in mM: 88 NaCl, 1 KCl, 0.33 Ca(NO3)2, 0.41 CaCl2, 0.82 MgSO4, 2.4 NaHCO3, and 7.5 HEPES, pH adjusted to 7.3 with NaOH), supplemented with gentamicin ([…]) and 50 μM APV, a selective NMDA receptor antagonist. Plates were then stored at 18 °C for 24 h for GluN1/GluN2A expression and for 48––72 h for the expression of GluN1/Glu2B, GluN1/GluN2A/GluN2B, and mutants.
TEVC recordings were performed 1–3 days following injection. TEVC recordings were performed using an Oocyte Clamp amplifier OC-725 (Warner Instruments) and computer-controlled via a 1440A Digidata (Molecular Devices). Currents were sampled at 100 Hz and low-pass-filtered at 20 Hz using an 8-pole Bessel filter (900 Series, Frequency Devices Inc.).

[1] = GluN1/GluN2B wt, OptoNAM-3 350 nm PSS, read-out: Relative current (IOpto/I0)
[2] = GluN1/GluN2B wt, OptoNAM-3 365 nm PSS, read-out: Relative current (IOpto/I0)
[3] = GluN1/GluN2B wt, OptoNAM-3 dark PSS (trans), read-out: Relative current (IOpto/I0)

T1 sequence (Q01097 27-1482, other chains not shown): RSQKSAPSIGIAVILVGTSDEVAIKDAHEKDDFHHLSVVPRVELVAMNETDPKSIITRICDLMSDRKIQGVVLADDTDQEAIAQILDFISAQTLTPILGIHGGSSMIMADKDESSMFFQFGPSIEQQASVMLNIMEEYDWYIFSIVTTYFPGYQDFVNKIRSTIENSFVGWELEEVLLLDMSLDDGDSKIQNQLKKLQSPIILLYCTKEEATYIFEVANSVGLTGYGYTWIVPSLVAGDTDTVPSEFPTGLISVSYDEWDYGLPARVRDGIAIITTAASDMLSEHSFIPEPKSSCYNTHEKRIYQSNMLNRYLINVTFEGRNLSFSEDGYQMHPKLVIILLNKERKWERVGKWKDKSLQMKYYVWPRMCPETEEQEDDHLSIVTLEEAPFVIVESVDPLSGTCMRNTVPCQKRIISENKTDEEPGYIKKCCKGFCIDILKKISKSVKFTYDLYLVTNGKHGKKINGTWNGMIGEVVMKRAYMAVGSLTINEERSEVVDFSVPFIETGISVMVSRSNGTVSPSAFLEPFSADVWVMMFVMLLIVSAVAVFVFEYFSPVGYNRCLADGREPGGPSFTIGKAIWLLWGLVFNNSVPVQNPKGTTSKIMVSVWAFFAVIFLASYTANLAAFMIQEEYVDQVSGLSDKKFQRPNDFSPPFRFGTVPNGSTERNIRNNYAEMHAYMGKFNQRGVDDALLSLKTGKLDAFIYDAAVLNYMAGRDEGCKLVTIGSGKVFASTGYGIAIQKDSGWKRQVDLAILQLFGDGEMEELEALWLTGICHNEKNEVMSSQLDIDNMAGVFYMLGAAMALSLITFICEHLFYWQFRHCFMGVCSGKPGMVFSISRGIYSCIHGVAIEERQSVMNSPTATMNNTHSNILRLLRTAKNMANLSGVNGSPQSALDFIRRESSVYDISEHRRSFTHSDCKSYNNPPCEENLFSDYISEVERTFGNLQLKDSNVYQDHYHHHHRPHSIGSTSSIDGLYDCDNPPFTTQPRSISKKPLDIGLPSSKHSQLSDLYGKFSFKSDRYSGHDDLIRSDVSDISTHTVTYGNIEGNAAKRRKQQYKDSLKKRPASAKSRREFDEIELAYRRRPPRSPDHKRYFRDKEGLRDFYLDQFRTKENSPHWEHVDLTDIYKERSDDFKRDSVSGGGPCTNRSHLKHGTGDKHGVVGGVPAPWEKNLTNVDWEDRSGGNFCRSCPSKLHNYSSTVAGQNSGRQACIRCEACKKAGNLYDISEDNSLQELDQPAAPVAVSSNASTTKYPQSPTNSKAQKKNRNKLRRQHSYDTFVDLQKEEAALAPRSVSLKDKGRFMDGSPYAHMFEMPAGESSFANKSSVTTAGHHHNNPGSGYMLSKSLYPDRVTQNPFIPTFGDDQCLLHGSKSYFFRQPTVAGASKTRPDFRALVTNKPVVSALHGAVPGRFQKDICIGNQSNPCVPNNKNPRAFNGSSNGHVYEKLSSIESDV

Structure (SMILES): c1ccc(/N=N/c2ccc(CCNc3ccncc3)cc2)cc1 [OptoNAM-3, (E)-N-(4-(Phenyldiazenyl)phenethyl)pyridin-4-amine]
- Relative current for theoretical 100% cis (0.025 µM, calculated from the 365 nm PSS curve): 0.953
- Relative current for theoretical 100% cis (0.050 µM, calculated from the 365 nm PSS curve): 0.945
- Relative current for theoretical 100% cis (0.125 µM, calculated from the 350 nm PSS curve): 0.949
- Relative current for theoretical 100% cis (0.125 µM, calculated from the 365 nm PSS curve): 0.988
- Relative current for theoretical 100% cis (0.220 µM, calculated from the 365 nm PSS curve): 1.000
- Relative current for theoretical 100% cis (0.300 µM, calculated from the 350 nm PSS curve): 1.005
- Relative current for theoretical 100% cis (0.300 µM, calculated from the 365 nm PSS curve): 0.993
- Relative current for theoretical 100% cis (0.470 µM, calculated from the 350 nm PSS curve): 1.025
- Relative current for theoretical 100% cis (0.500 µM, calculated from the 365 nm PSS curve): 0.891
- inhibition of GluN1/GluN2B wt: 69.305%
- inhibition of GluN1/GluN2B wt (listed as trans-OptoNAM-3): 69% ± 2%
- Relative current for theoretical 100% cis (1.000 µM, calculated from the 350 nm PSS curve): 1.085
- Relative current for theoretical 100% cis (1.000 µM, calculated from the 365 nm PSS curve): 0.988
- Relative current for theoretical 100% cis (2.000 µM, calculated from the 350 nm PSS curve): 1.000
- Relative current for theoretical 100% cis (2.000 µM, calculated from the 365 nm PSS curve): 0.933
- Relative current for theoretical 100% cis (3.000 µM, calculated from the 350 nm PSS curve): 1.043
- Relative current for theoretical 100% cis (3.000 µM, calculated from the 365 nm PSS curve): 0.959
- Relative current for theoretical 100% cis (5.000 µM, calculated from the 350 nm PSS curve): 0.994
- Relative current for theoretical 100% cis (5.000 µM, calculated from the 365 nm PSS curve): 0.960
- inhibition at 10 µM (10 µM OptoNAM-3 365 nm PSS, construct GluN1/GluN2B, read-out: Inhibition (%)): 68%
- Inhibition, individual values (10 µM OptoNAM-3 dark PSS (trans) as headed, GluN1/GluN2B, single cells, second block): 0.6438 and 0.6778 and 0.6833 and 0.7763
- inhibition at 10 µM (10 µM OptoNAM-3 dark PSS (trans) as headed, GluN1/GluN2B, single cells, second block, read-out: Inhibition, individual values): 63.8%
- Inhibition, individual values (10 µM OptoNAM-3 dark PSS (trans), GluN1/GluN2B, single cells, first block): 0.9137 and 0.9546 and 0.9747
- inhibition at 10 µM (10 µM OptoNAM-3 dark PSS (trans), GluN1/GluN2B, single cells, first block, read-out: Inhibition, individual values): 92.7%
- inhibition at 10 µM (10 µM OptoNAM-3 dark PSS (trans), construct GluN1/GluN2B, read-out: Inhibition (%)): 94%
- Relative current for theoretical 100% cis (30.000 µM, calculated from the 365 nm PSS curve): 0.961
- IC50 (350 nm PSS, read-out: IC50 on GluN1/GluN2B receptors, preilluminated with 350 nm): 4.4 µM and 4.38 µM
- IC50 (365 nm PSS, read-out: IC50 on GluN1/GluN2B receptors, preilluminated with 365 nm): 1.7 µM
- remaining activity at 0.125 µM (GluN1/GluN2B wt, OptoNAM-3 350 nm PSS, [OptoNAM-3] 0.125 µM, read-out: Relative current (IOpto/I0)): 90.7%
- remaining activity at 0.3 µM (GluN1/GluN2B wt, OptoNAM-3 350 nm PSS, [OptoNAM-3] 0.3 µM, read-out: Relative current (IOpto/I0)): 91.8%
- remaining activity at 0.47 µM (GluN1/GluN2B wt, OptoNAM-3 350 nm PSS, [OptoNAM-3] 0.47 µM, read-out: Relative current (IOpto/I0)): 90%
- remaining activity at 1 µM [1]: 86%
- remaining activity at 2 µM (GluN1/GluN2B wt, OptoNAM-3 350 nm PSS, [OptoNAM-3] 2 µM, read-out: Relative current (IOpto/I0)): 65.6%
- remaining activity at 3 µM [1]: 61.3%
- remaining activity at 5 µM [1]: 44.6%
- remaining activity at 0.025 µM [2]: 93.3%
- remaining activity at 0.05 µM [2]: 91%
- remaining activity at 0.125 µM (GluN1/GluN2B wt, OptoNAM-3 365 nm PSS, [OptoNAM-3] 0.125 µM, read-out: Relative current (IOpto/I0)): 91.2%
- remaining activity at 0.22 µM [2]: 88%
- remaining activity at 0.3 µM (GluN1/GluN2B wt, OptoNAM-3 365 nm PSS, [OptoNAM-3] 0.3 µM, read-out: Relative current (IOpto/I0)): 84.1%
- remaining activity at 0.5 µM (GluN1/GluN2B wt, OptoNAM-3 365 nm PSS, [OptoNAM-3] 0.5 µM, read-out: Relative current (IOpto/I0)): 66.6%
- remaining activity at 1 µM [2]: 64.4%
- remaining activity at 2 µM (GluN1/GluN2B wt, OptoNAM-3 365 nm PSS, [OptoNAM-3] 2 µM, read-out: Relative current (IOpto/I0)): 43.3%
- remaining activity at 3 µM [2]: 37.5%
- remaining activity at 5 µM [2]: 26.7%
- remaining activity at 30 µM [2]: 3.4%
- remaining activity at 0.025 µM [3]: 88.7%
- remaining activity at 0.05 µM [3]: 82.7%
- remaining activity at 0.125 µM (GluN1/GluN2B wt, OptoNAM-3 dark PSS (trans), [OptoNAM-3] 0.125 µM, read-out: Relative current (IOpto/I0)): 75.8%
- remaining activity at 0.22 µM [3]: 59.2%
- remaining activity at 0.3 µM (GluN1/GluN2B wt, OptoNAM-3 dark PSS (trans), [OptoNAM-3] 0.3 µM (Sup. Fig. 3A/B/E), read-out: Relative current (IOpto/I0)): 58.1%
- remaining activity at 1 µM [3]: 30.7%
- remaining activity at 2 µM (GluN1/GluN2B wt, OptoNAM-3 dark PSS (trans), [OptoNAM-3] 2 µM (Sup. Fig. 3A/B/E), read-out: Relative current (IOpto/I0)): 14.1%
- remaining activity at 3 µM [3]: 9.8%
- remaining activity at 5 µM [3]: 9.2%
- remaining activity at 30 µM [3]: 0.423%
- Relative current for theoretical DRC 9% trans (GluN1/GluN2B wt, [OptoNAM-3] 0.125 µM): 0.958
- Relative current for theoretical DRC 9% trans (GluN1/GluN2B wt, [OptoNAM-3] 0.3 µM): 0.913
- Relative current for theoretical DRC 9% trans (GluN1/GluN2B wt, [OptoNAM-3] 0.47 µM): 0.875
